Patent US20250339504A1, “CANCER VACCINE WITH USE OF COMMON CANCER ANTIGEN COCKTAIL, TCR/CAR-T CELL THERAPEUTIC, COMPANION DIAGNOSTIC METHOD, AND METHOD FOR DIAGNOSING RISK OF CANCER ONSET BY DETECTING CIRCULATING TUMOR CELLS” (National Cancer Center, priority 2022, published 2025)

Experiments:
[1] = tested on: HLA-A*24:02 transgenic mice; test: Peptide vaccine CTL induction, IFN-γ ELISpot, HLA-A*24:02 Tgm; format: in vivo; settings: HLA-A*24:02-restricted short peptide vaccine once per week, three times, splenocytes
Experimental: (§1) The predicted antigen peptides were evaluated on the capability of inducing CTLs by using transgenic mice with an HLA gene introduced therein. Each peptide was dissolved in dimethyl sulfoxide (DMSO, FUJIFILM Wako Pure Chemical Corporation) at 10 mg/ml, and HLA transgenic mice were immunized with the resultant together with an adjuvant every week, three times in total. One week after that, the spleens were extracted, and the productions of IFN-γ were evaluated through IFN-γ ELISpot assay.
(§2) In ELISpot assay, CD8-positive T cells were isolated from splenocytes of immunized mice by means of an MACS, and suspended at 1×10^5 cells/well, and the resultant was used as effector cells. Splenocytes of unimmunized mice were subjected to radiation (100 kV, 10 mA, 100 Gy), and suspended at a concentration of 2×10^6 cells/well in Final medium supplemented with any one of the peptides at a concentration of 20 ug/ml, and the resultant was used as target cells.
(§3) FIG. 14, FIG. 15, and Table 1 show identification of multiple peptides each capable of inducing CD8-positive killer T cells (CTLs) reactive with the peptide in splenocytes of mice systemically expressing human HLA-A*24:02 or HLA-A*02:01 in their cells by screening, wherein a peptide vaccine of peptides predicted to be presented by HLA-A*24:02 or HLA-A*02:01 and synthesized from the amino acid sequences of the ten common cancer antigen full-length proteins was administered once per week, three times in total. The rates of inducing CTLs reactive with those peptides were 30 peptides in the 72 HLA-A*24:02-restricted common cancer antigen short peptides, and 38 peptides in the 73 HLA-A*02:01-restricted common cancer antigen short peptides; 68 peptides in the 145 peptides in total.

HLA-A*24:02 Tgm = test: Long peptide vaccine, IFN-γ ELISpot, HLA-A*24:02 Tgm; format: in vivo, mice; settings: long peptide (15 to 21 mer) containing the short peptide, CTLs reactive with the short peptide
Experimental: as §2

[2] = tested on: HLA-A*02:01 transgenic mice; test: Peptide vaccine CTL induction, IFN-γ ELISpot, HLA-A*02:01 Tgm; format: in vivo; settings: HLA-A*02:01-restricted short peptide vaccine once per week, three times, splenocytes
Experimental: as §1, §2, §3

HLA-A*02:01 Tgm = test: Long peptide vaccine, IFN-γ ELISpot, HLA-A*02:01 Tgm; format: in vivo, mice; settings: long peptide (15 to 21 mer) containing the short peptide, CTLs reactive with the short peptide
Experimental: as §2

Sequence	CTL induction [1]	Long peptide reaction (HLA-A*24:02 Tgm)	CTL induction [2]	Long peptide reaction (HLA-A*02:01 Tgm)
ADFSGLLEKC [CA24 105]	Yes	No		
AFEFVGEFF [A24-GPC3-17]	Yes	No		
ALFTGWAAA [CLDN1-A02-2]			Yes	No
AWSYGIVMW [CA24 123]	Yes			
AYLEVTDVI [CA24 91]	Yes			
AYMLEVYGSL [LAT1-A24-5]	Yes	No		
AYYPEDLFI [A24-GPC3-11]	Yes	No		
CYAELGTTI [LAT1-A24-2]	Yes	Yes		
DFSGLLEKC [CA02 104]			Yes	No
DFSGLLEKC [CA24 102]	Yes	No		
DYIGPCKYI [CA24 54]	Yes			
EFGQALFTGW [CLDN1-A24-5]	Yes	No		
ELFDSLFPV [CA02 12]			Yes	
FFTDVSLYI [A02-GPC3-18]			Yes	
FFTDVSLYI [A24-GPC3-10]	Yes			
FIFHKDLCQ [CA02 103]			Yes	No
FIFHKDLCQA [CA02 101]			Yes	No
FLAELAYDL [CA02 11]			Yes	Yes
FLIIQNAAV [A02-GPC3-12]			Yes	No
FLLCLAGRAL [CA02 56]			Yes	No
FLRRGPFEL [CA02 21]			Yes	
FTYEDPNEAV [CA02 127]			Yes	
GLDEEQHSV [CA02 121]			Yes	Yes
GQFTVIQLV [CA02 126]			Yes	

Sequence	CTL induction [1]	Long peptide reaction (HLA-A*24:02 Tgm)	CTL induction [2]	Long peptide reaction (HLA-A*02:01 Tgm)
GWAAASLCL [CLDN1-A24-7]	Yes	No		
HFFATKCTL [CA24 55]	Yes			
HLIDKVISTI [CA02 82]			Yes	
HYAKIAADF [CA24 21]	Yes	No		
ILMVFSIWL [CA02 95]			Yes	Yes
ILPYCRPTF [CA24 98]	Yes	Yes		
ILSMIHPQL [LAT1-A02-4]			Yes	No
IVMWEVMSF [CA24 127]	Yes			
IYTWIEDHF [CA24 32]	Yes	No		
KLCGPYEKF [CA24 23, hHSP105α HLA-A*24:02 short peptide]	peptide-specific IFN-γ production had been found			
KLDVGNIVL [LAT1-A02-3]			Yes	
KMKPLLPRV [CA0233]			Yes	
KYFTNCKQW [CA24 85]	Yes			
KYVCVGTNM [CA24 95]	Yes			
KYWREYILSL [A24-GPC3-06]	Yes	No		
LLQKIEVPL [CA02 24]			Yes	
LLTPVPSLV [LAT1-A02-2]			Yes	
LQLLGFILA [CLDN1-A02-6]			Yes	
MLVAAIQSA [CA02 86]			Yes	No
MYIFPVHWQF [CA24 51]	Yes	No		
NYGIYKQDL [CA24 25, hHSP105α HLA-A*24:02 short peptide]	peptide-specific IFN-γ production had been found			
PFSKVLTFL [CA24 22, hHSP105α HLA-A*24:02 short peptide]	peptide-specific IFN-γ production had been found			
PYPEAKIGRF [CA24 24, hHSP105α HLA-A*24:02 short peptide]	peptide-specific IFN-γ production had been found			
QLLTPVPSL [LAT1-A02-1]			Yes	No

Sequence	CTL induction [1]	Long peptide reaction (HLA-A*24:02 Tgm)	CTL induction [2]	Long peptide reaction (HLA-A*02:01 Tgm)
RIYDMENVLL [A02-GPC3-10]			Yes	
RLEAGDHPV [CA02 52]			Yes	No
RYLTLDQVF [CA24 31]	Yes	No		
SLVSNVNIEL [CA02 83]			Yes	Yes
STIHDSIQYV [A02-GPC3-14]			Yes	Yes
SYGIVMWEV [CA24 124]	Yes	Yes		
SYMAMIQFAI [CA24 34]	Yes	No		
TFDSSCHFF [CA24 53]	Yes	No		
TIHDSIQYV [CA02 13]			Yes	Yes
TMNDSLSKI [CA0235]			Yes	No
TVDGSTFSV [CA02 92]			Yes	
VIADRPPPV [CA02 97]			Yes	Yes
VLDSLVSNV [CA02 81]			Yes	
VLLGLFSTI [CA02 15]			Yes	Yes
VMSWIIPVF [LAT1-A24-6]	Yes			
WYGNRIVQEF [CLDN1-A24-2]	Yes	No		
YGNRIVQEF [CLDN1-A24-4]	Yes	No		
YIFPVHWQF [CA24 52]	Yes	No		
YIIEAFSHA [CA02 91]			Yes	
YLIGHGTKV [CA02 122]			Yes	
YMLEVYGSL [LAT1-A02-5]			Yes	No
YSYAGDNIV [CLDN1-A02-5]			Yes	
YYICQTLNV [CA24 97]	Yes	No		
